Patent US10213445B2, “Compositions and methods of diazeniumdiolate-based prodrugs for treating cancer” (ARIZONA BOARD OF REGENTS ON BEHALF OF THE UNIVERSITY OF …, priority 2014, dated 2019)

What was measured:
[1] = system: MDA-MB-231 cells; experiment: Alkaline Comet assay of DNA damage; assay type: cell-based, human; conditions: 75 μM, 8 hours, 37° C.
Protocol: Tail length: mean±SEM, n≥150.
Autoxidation of both NO and HNO leads to species that are capable of damaging DNA. Conversion of NO to N2O3 can induce mutations through base deamination) while the product of the reaction of HNO with O2 can oxidize and cleave DNA. To investigate the possibility of RNS-induced DNA damage as a mechanism of cytotoxicity, the effect of the NONO-aspirin prodrugs was studied with the alkaline Comet assay in MDA-MB-231 cells. After 8 hours, the damage induced by treatment with 50 μM IPA/NO-aspirin was significant (FIG. 7A) and similar to the H2O2 positive control (FIG. 7C). […] This may be an important factor in the observed enhanced cytotoxicity of IPA/NO-aspirin. In particular, IPA/NO-aspirin is able to damage DNA (FIG. 7) including inducing double strand breaks, in a manner similar to radiation therapy and chemotherapies such as doxorubicin.

[2] = system: MDA-MB-231 cells; experiment: Oxidation of DCF (oxidant level) in cells; assay type: cell-based, human; conditions: 100 μM, 37° C., MDA-MB-231 as representative example
Protocol: DCF loaded cells were treated with IPA/NO-aspirin (blue), DEA/NO-aspirin (green), IPA/NO (magenta), DEA/NO (brown), aspirin (red) or DMSO (0.1%; black) at 37° C., and the fluorescence at 535 nm was measured in a time-dependent manner. Data are plotted as mean±SD (n=4).

[3] = system: MDA-MB-231 cells; experiment: MTT cell viability; assay type: cell-based, human; conditions: read-out: concentration for 50% reduction of viability (IC50), MDA-MB-231, 48 h, mean ± SD for three trials
Protocol: (§1) Figures are representative of three trials with data plotted as mean percentage versus untreated cells±SD of the four replicates per plate). Vehicle (DMSO or 10 mM NaOH) was added as a control to otherwise untreated cells.
(§2) For examples utilizing cell culture methods, the following procedure was instituted. Human breast adenocarcinoma cells (MDA-MB-231, MCF-7 and MDA-MB-468; American Type Culture Collection, Manassas, Va.) were grown as monolayers in RPMI 1640 (Invitrogen, Carlsbad, Calif.) supplemented with 10% FBS (Hyclone, Thermo Fisher Scientific Inc., Waltham, Mass.), penicillin (50 units mL^−1) and streptomycin ([…]; Life Technologies, Inc., Grand Island, N.Y.). Non-tumorigenic, human breast epithelial cells (MCF-10A; American Type Culture Collection) and HUVECs (Cell Applications, Inc., San Diego, Calif.) were grown as monolayers in endothelial growth media (Lonza Inc., US-Allendale, N.J. or Cell Applications, Inc., San Diego, Calif.). Cells were seeded at a density of 1×10^6 cells per 100 cm^2 culture dish and were incubated at 37° C. in 5% CO2 at 80% relative humidity. Single-cell suspensions were obtained by trypsinization (0.05% trypsin/EDTA, Invitrogen, Carlsbad, Calif.). MDA-MB-231 cells stably transfected with green fluorescent protein (GFP) and G418 antibiotic resistance gene were a generous gift from Dr. Aldona Karaczyn from the Maine Medical Center Research Institute, Scarborough, Me. MDA-MB-231-GFP cells were grown as described for MDA-MB-231 cells with the addition of […] ([…]) to ensure vector presence.
(§3) In this example, the impact of IPA/NO-aspirin and DEA/NO-aspirin was assessed compared to aspirin or the parent diazeniumdiolate on proliferation of four human breast cell lines: MDA-MB-231 (ER(−) adenocarcinoma), MDA-MB-468 (ER(−) adenocarcinoma), MCF-7 (ER(+) adenocarcinoma) and MCF-10A (non-tumorigenic, immortalized human breast epithelial cells).

[4] = system: MDA-MB-468 cells; experiment: MTT cell viability; assay type: cell-based, human; conditions: read-out: concentration for 50% reduction of viability (IC50), MDA-MB-468, 48 h, mean ± SD for three trials
Protocol: as §1, §2, §3

[5] = system: MCF-7 cells; experiment: MTT cell viability; assay type: cell-based, human; conditions: read-out: concentration for 50% reduction of viability (IC50), MCF-7, 48 h, mean ± SD for three trials
Protocol: as §1, §2, §3

[6] = system: MCF-10A cells; experiment: MTT cell viability; assay type: cell-based, human; conditions: read-out: concentration for 50% reduction of viability (IC50), 48 h, did not reach a 50% reduction at 200 μM
Protocol: as §1, §2, §3

[7] = system: BCL-2; experiment: BCL-2 expression; assay type: cell-based; conditions: FIG. 18
[8] = system: ER-α; experiment: ER-α levels (mRNA of ER1) in ER-α(−) cells; assay type: cell-based; conditions: FIG. 20
[9] = system: prostaglandin E2 (PGE2); conditions: cited from earlier work

Structure (SMILES): CCN(CC)[N+]([O-])=NOCOC(=O)c1ccccc1OC(C)=O [DEA/NO-aspirin, O2-(Acetylsalicyloyloxymethyl)-1-(N,N-Diethylamino)-diazen-1-ium-1,2-diolate]
- DNA damage (Comet assay) [1]: did not differ from the DMSO-treated negative control
- oxidation of DCF (fluorescence intensity) [2]: minimal impact
- IC50 [3]: 102 ± 10 µM
- IC50 [4]: 90 ± 4 µM
- IC50 [5]: 122 ± 3 µM
- IC50 [6]: > 200 µM

Structure (SMILES): CC(=O)Oc1ccccc1C(=O)OCON=[N+]([O-])NC(C)C [IPA/NO-aspirin, O2-(Acetylsalicyloyloxymethyl)-1-(N-isopropylamino)-diazen-1-ium-1,2-diolate]
- BCL-2 expression [7]: inhibits the aspirin effect
- ER-α levels [8]: inhibit the aspirin effect
- oxidation of DCF (fluorescence intensity) [2]: significant increase in fluorescence intensity
- level of PGE2 [9]: reduction in PGE2 levels
- IC50 [3]: 92 ± 1 µM
- IC50 [4]: 81 ± 2 µM
- IC50 [5]: 93 ± 2 µM
- IC50 [6]: > 200 µM
